Laboratory results reported in patent publication US6313132A, “Therapeutically active diarylpropylamines; their pharmaceutically acceptable salts; a method for their preparation and method for their use” (Pharmacia AB, priority 1999, dated 2001).
Structures can show the parent of a compound that is named as a salt.

target: T1, muscarinic receptor (Cavia porcellus, UniProt H0W1Z3); assay: Functional in vitro studies: antagonism of carbachol-induced contraction of urinary bladder smooth muscle strips; format: cell-based, guinea pig; settings: not given
T1 construct: Smooth muscle strips of the urinary bladder were dissected in a Krebs-Henseleit solution; from tissue; host or cells: guinea pig urinary bladder smooth muscle strips
T1 sequence (H0W1Z3 1-590): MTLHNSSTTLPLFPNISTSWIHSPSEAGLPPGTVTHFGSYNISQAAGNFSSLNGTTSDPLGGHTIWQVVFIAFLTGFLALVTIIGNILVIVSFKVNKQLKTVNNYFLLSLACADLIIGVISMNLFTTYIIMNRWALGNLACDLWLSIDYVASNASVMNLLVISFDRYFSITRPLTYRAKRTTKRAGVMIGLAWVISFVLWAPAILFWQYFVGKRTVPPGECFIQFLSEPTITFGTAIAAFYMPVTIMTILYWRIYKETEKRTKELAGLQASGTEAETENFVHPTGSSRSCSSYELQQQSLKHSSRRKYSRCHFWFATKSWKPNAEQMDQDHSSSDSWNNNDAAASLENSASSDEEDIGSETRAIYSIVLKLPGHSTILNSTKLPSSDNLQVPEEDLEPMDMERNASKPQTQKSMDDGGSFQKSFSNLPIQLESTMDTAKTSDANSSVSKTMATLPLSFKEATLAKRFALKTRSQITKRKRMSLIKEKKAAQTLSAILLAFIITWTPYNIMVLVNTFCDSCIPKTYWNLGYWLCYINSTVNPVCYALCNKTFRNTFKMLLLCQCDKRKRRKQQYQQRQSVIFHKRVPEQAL

Question: `CC(C)N(CCC(c1ccccc1)c1cnc[nH]1)C(C)C` (stereo not drawn) [Example 36, N,N-Diisopropyl-3-(imidazol-4(5)-yl)-3-phenylpropanamine dihydrochloride] was tested. Which Kb did it give?
Answer: 2640 nM

same assay, conditions: male guinea pig urinary bladder strips; carbachol agonist; 60 min incubation with antagonist; Krebs-Henseleit pH 7.4, 37° C.; KB from dose ratios (Schild); 60 min; read-out: KB-value

Question: Which Kb does the source give for `CC(C)N(CC[C@H](c1ccccc1)c1cc(C(O)CO)ccc1O)C(C)C` (single isomer, unassigned; (+)) [Example 15, (+)-N,N-Diisopropyl-3(R)-[5-(1(R*),2-dihydroxyethyl)-2-hydroxyphenyl]-3-phenylpropanamine fumarate] here?
Answer: 15 nM

Question: Which Kb does the source give for `CC(C)N(CC[C@H](c1ccccc1)c1cc(C(O)CO)ccc1O)C(C)C` (single isomer, unassigned; (-)) [Example 16, (-)-N,N-Diisopropyl-3(R)-[5-(1(S*),2-dihydroxyethyl) 2-hydroxyphenyl]-3-phenylpropanamine fumarate] here?
Answer: 32 nM

same assay, conditions: male guinea pig urinary bladder strips; carbachol agonist; 60 min incubation with antagonist; Krebs-Henseleit pH 7.4, 37° C.; KB from dose ratios (Schild); read-out: KB-value

Question: `Cc1ccc(O)c(C(CCN(C(C)C)C(C)C)c2cccs2)c1` (single isomer, unassigned) [Example 55, (R*) N,N-Diisopropyl-3-(2-hydroxy-5-methylphenyl)-3-(2-thienyl)propanamine] was tested. Which Kb did it give?
Answer: 2 nM

Question: `Cc1ccc(O)c(C(CCN(C(C)C)C(C)C)c2cccs2)c1` (single isomer, unassigned) [Example 56, (S*) N,N-Diisopropyl-3-(2-hydroxy-5-methylphenyl)-3-(2-thienyl)propanamine] was tested. Which Kb did it give?
Answer: 360 nM

Question: For `Cc1ccc(O)c(C(CCN(CCOCCO)C(C)C)c2ccccc2)c1` (stereo not drawn) [Example 1, N-(5-Hydroxy-3-oxapentyl)-N-isopropyl-3-(2-hydroxy-5-methylphenyl)-3-phenylpropanamine hydrochloride], which Kb is on record?
Answer: 499 nM

Question: Which Kb does the source give for `Cc1ccc(O)c(C(CCN(C)C2CCCCC2)c2ccccc2)c1` (stereo not drawn) [Example 3, N-Cyclohexyl-N-methyl-3-(2-hydroxy-5-methylphenyl)-3-phenylpropanamine hydrochloride] here?
Answer: 236 nM

Question: How did the Kb turn out when `CC(C)N(CCC(c1ccccc1)c1ccccc1C(F)(F)F)C(C)C` (stereo not drawn) [Example 4, N,N-Diisopropyl-3-(2-trifluoromethylphenyl)-3-phenylpropanamine hydrochloride] was run?
Answer: 132 nM

Question: With `CC(C)N(CCC(c1cccnc1)c1ccccc1O)C(C)C` (stereo not drawn) [Example 5, N,N-Diisopropyl-3-(2-hydroxyphenyl)-3-(3-pyridyl)-propanamine dihydrochloride] as the compound, how does the Kb read?
Answer: 336 nM

Question: Which Kb does the source give for `CC(C)N(CCC(c1ccccc1)c1ccccc1F)C(C)C` (stereo not drawn) [Example 6, N,N-Diisopropyl-3-(2-fluorophenyl)-3-phenylpropanamine hydrochloride] here?
Answer: 10 nM

Question: How did the Kb turn out when `CC(C)N(CC[C@H](c1ccccc1)c1cc(C=O)ccc1O)C(C)C` [Example 7, (R)-N,N-Diisopropyl-3-(5-formyl-2-hydroxyphenyl)-3-phenylpropanamine hydrochloride] was run?
Answer: 13 nM

Question: How did the Kb turn out when `CC(C)N(CC[C@H](c1ccccc1)c1cc(CNCCOCCO)ccc1O)C(C)C` [Example 8, (R)-N,N-Diisopropyl-3-[5-(7-hydroxy-2-aza-5-oxaheptyl)-2-hydroxyphenyl]-3-phenylpropanazine di-(S)-mandelate] was run?
Answer: 26 nM

Question: With `COC(=O)c1ccc(O)c([C@H](CCN(C(C)C)C(C)C)c2ccccc2)c1` [Example 9, (R)-N,N-Diisopropyl-3-(2-hydroxy-5-methyloxycarbonyl-phenyl)-3-phenylpropanamine hydrochloride] as the compound, how does the Kb read?
Answer: 3.8 nM

Question: `CC(C)N(CCC(c1ccccc1)c1ccccc1CO)C(C)C` (stereo not drawn) [Example 10, N,N-Diisopropyl-3-(2-hydroxymethyl)phenyl-3-phenylpropanamine hydrochloride] was tested. Which Kb did it give?
Answer: 171 nM

Question: How did the Kb turn out when `CC(C)N(CC[C@@H](c1ccccc1)c1cc(CCO)ccc1O)C(C)C` [Example 11, (S)-N,N-Diisopropyl-3-[2-hydroxy-5-(2-hydroxyethyl)phenyl]-3-phenylpropanamine hydrochloride] was run?
Answer: 431 nM

Question: Which Kb does the source give for `CC(C)N(CC[C@H](c1ccccc1)c1cc(CCO)ccc1O)C(C)C` [Example 12, (R)-N,N-Diisopropyl-3-[2-hydroxy-5-(2-hydroxyethyl)phenyl]-3-phenylpropanamine hydrochloride] here?
Answer: 1.18 nM

Question: How did the Kb turn out when `CC(=O)c1ccc(O)c([C@H](CCN(C(C)C)C(C)C)c2ccccc2)c1` [Example 13, (R)-N,N-Diisopropyl-3-(5-acetyl-2-hydroxyphenyl)-3-phenylpropanamine hydrochloride] was run?
Answer: 15 nM

Question: How did the Kb turn out when `CC(O)c1ccc(O)c([C@H](CCN(C(C)C)C(C)C)c2ccccc2)c1` (stereo partly drawn) [Example 14, N,N-Diisopropyl-3(R)-[2-hydroxy-5-(1-hydroxyethyl)phenyl]-3-phenylpropanamine fumarate] was run?
Answer: 4.5 nM

Question: Which Kb does the source give for `CC(C)N(CC[C@H](c1ccccc1)c1cc(CCCCCCO)ccc1O)C(C)C` [Example 17, (R)-[N,N-Diisopropyl-3-[2-hydroxy-5-(6-hydroxyhexyl)phenyl]-3-phenylpropanamine hydrochloride] here?
Answer: 3.5 nM

Question: With `CC(C)N(CCc1ccc(O)c([C@H](CCN(C(C)C)C(C)C)c2ccccc2)c1)C(C)C` [Example 18, (R)-N,N-Diisopropyl-3-[5-(2-diisopropylaminoethyl)-2-hydroxyphenyl]-3-phenylpropanamine hydrochloride] as the compound, how does the Kb read?
Answer: 172 nM

Question: `CCOCc1ccc(O)c([C@H](CCN(C(C)C)C(C)C)c2ccccc2)c1` [Example 19, (R)-N,N-Diisopropyl-3-(5-ethoxymethyl-2-hydroxyphenyl)-3-phenylpropanamine] was tested. Which Kb did it give?
Answer: 2.9 nM

Question: `CC(C)NCCC(c1ccccc1)c1cc(C(=O)O)ccc1O` (stereo not drawn) [Example 20, N-Isopropyl-3-(5-carboxy-2-hydroxyphenyl)-3-phenylpropanamine hydrochloride] was tested. Which Kb did it give?
Answer: 3320 nM

Question: Which Kb does the source give for `CC(C)N(CC[C@H](c1ccccc1)c1cc(CCCN)ccc1O)C(C)C` [Example 22, (R)-N,N-Diisopropyl-3-[5-(3-aminopropyl)-2-hydroxyphenyl]-3-phenylpropanamine dihydrochloride] here?
Answer: 2.8 nM

Question: `CC(=O)NCCCc1ccc(O)c([C@H](CCN(C(C)C)C(C)C)c2ccccc2)c1` [Example 23, (R)-N,N-Diisopropyl-3-[5-3-(acetamidopropyl)-2-hydroxyphenyl]-3-phenylpropanamine hydrochloride] was tested. Which Kb did it give?
Answer: 1.05 nM

Question: Which Kb does the source give for `CC(C)N(CC[C@H](c1ccccc1)c1cc(CCC#N)ccc1O)C(C)C` [Example 24, (R)-N,N-Diisopropyl-3-[5-(2-cyanoethyl)-2-hydroxyphenyl]-3-phenylpropanamine hydrochloride] here?
Answer: 1.91 nM

Question: How did the Kb turn out when `CC(C)N(CC[C@H](c1ccccc1)c1cc(N)ccc1O)C(C)C` [Example 27, (R)-(N,N-Diisopropyl-3-(5-amino-2-hydroxyphenyl)-3-phenylpropanaminedihydrochloride] was run?
Answer: 7.1 nM

Question: For `CC(C)N(CC[C@H](c1ccccc1)c1cc(N=[N+]=[N-])ccc1O)C(C)C` [Example 28, (R)-N,N-Diisopropyl-3-(5-azido-2-hydroxyphenyl)-3-phenylpropanamine hydrochloride], which Kb is on record?
Answer: 8.55 nM

Question: Which Kb does the source give for `CC(C)N(CC[C@H](c1ccccc1)c1cc(CCCO)ccc1O)C(C)C` [Example 29, (R) -N,N-Diisopropyl-3-[2-hydroxy-5-(3-hydroxypropyl)phenyl]-3-phenylpropanamine hydrochloride] here?
Answer: 1.5 nM

Question: `CCNCc1ccc(O)c([C@H](CCN(C(C)C)C(C)C)c2ccccc2)c1` [Example 30, N,N-Diisopropyl-3-(5-ethylaminomethyl-2-hydroxyphenyl)-3-phenylpropanamine] was tested. Which Kb did it give?
Answer: 139 nM

Question: How did the Kb turn out when `CN(CCC(c1ccccc1)c1ccccc1O)C1CCC1` (stereo not drawn) [Example 31, N-Cyclobutyl-N-methyl-3-(2-hydroxyphenyl)-3-phenylpropanamine hydrochloride] was run?
Answer: 14 nM

Question: With `CN(CCC(c1ccccc1)c1ccccc1O)C1CCCC1` (stereo not drawn) [Example 32, N-Cyclopentyl-N-methyl-3-(2-hydroxyphenyl)-3-phenylpropanamine hydrochloride] as the compound, how does the Kb read?
Answer: 36 nM

Question: With `CC(C)N(CCC(c1ccccc1)c1ccccc1N)C(C)C` (stereo not drawn) [Example 33, N,N-Diisopropyl-3-(2-aminophenyl)-3-phenylpropanamine hydrochloride] as the compound, how does the Kb read?
Answer: 56 nM

Question: Which Kb does the source give for `CC(C)N(CCC(c1ccccc1)c1nc2ccccc2o1)C(C)C` (stereo not drawn) [Example 34, N,N-Diisopropyl-3-(benzoxazol-2-yl)-3-phenylpropanamine, hydrochloride] here?
Answer: 803 nM

Question: `CC(C)N(CCC(c1ccccc1)c1cnco1)C(C)C` (stereo not drawn) [Example 35, N,N-Diisopropyl-3-(oxazol-5-yl)-3-phenylpropanamine hydrochloride] was tested. Which Kb did it give?
Answer: 1770 nM

Question: How did the Kb turn out when `CC(C)N(CCC(c1ccccc1)c1ncco1)C(C)C` (stereo not drawn) [Example 37, N,N-Diisopropyl-3-(oxazol-2-yl)-3-phenylpropanamine hydrochloride] was run?
Answer: 520 nM

Question: With `CC(C)N(CCC(c1ccccc1)c1nccs1)C(C)C` (stereo not drawn) [Example 38, N,N-Diisopropyl-3-phenyl-3-(thiazol-2-yl)propanamine hydrochloride] as the compound, how does the Kb read?
Answer: 207 nM

Question: With `Cc1csc(C(CCN(C(C)C)C(C)C)c2ccccc2)n1` (stereo not drawn) [Example 39, N,N-Diisopropyl-3-(4-methylthiazol-2-yl)-3-phenyl-propanamine hydrochloride] as the compound, how does the Kb read?
Answer: 235 nM

Question: `CC(C)N(CCC(c1ccccc1)c1cncs1)C(C)C` (stereo not drawn) [Example 40, N,N-Diisopropyl-3-(thiazol-5-yl)-3-phenylpropanamine hydrochloride] was tested. Which Kb did it give?
Answer: 814 nM

Question: For `CC(C)N(CCC(c1cccs1)c1ccccc1O)C(C)C` (stereo not drawn) [Example 41, N,N-Diisopropyl-3-(2-hydroxyphenyl)-3-(2-thienyl)-propanamine fumarate], which Kb is on record?
Answer: 7.6 nM

Question: `CC(C)N(CCC(c1cccs1)c1ccc(O)cc1O)C(C)C` (stereo not drawn) [Example 42, N,N-Diisopropyl-3-(2,4-dihydroxyphenyl)-3-(2-thienyl)propanamine] was tested. Which Kb did it give?
Answer: 286 nM

Question: With `COc1ccccc1C(CCN(C(C)C)C(C)C)c1cccs1` (stereo not drawn) [Example 43, N,N-Diisopropylamine-3-(2-methoxyphenyl)-3-(2-thienyl)propanamine, fumarate] as the compound, how does the Kb read?
Answer: 29 nM

Question: `COc1ccc(C(CCN(C(C)C)C(C)C)c2cccs2)c(OC)c1` (stereo not drawn) [Example 44, N,N-Diisopropyl-3-(2,4-dimethoxyphenyl)-3-(2-thienyl)propanamine fumarate] was tested. Which Kb did it give?
Answer: 2290 nM
